# Experimental data published in US20260022142A1, “MACROCYCLIC IMMUNOMODULATORS” (Bristol-Myers Squibb Company, priority 2022, published 2026).
# pIC50: −log10 of the molar value. Numbered stars: 1 amine (or outer) side, 2 acyl side, 3 side chain; on linkers, the order of the positions; unused ones are H or OH. Bridge positions count the residues as written; N and C are the ends. Square brackets hold non-standard residues; d marks the D form. Peptide text beside a SMILES is read from it. * marks the point of attachment. ξ: configuration not given here. Phe(3-CF3) = N[C@@H](Cc1cccc(C(F)(F)F)c1)C(=O)O; Phe(4-COOH) = N[C@@H](Cc1ccc(C(=O)O)cc1)C(=O)O; Bip = N[C@@H](Cc1ccc(-c2ccccc2)cc1)C(=O)O; d(βAsp) = O=C(O)[C@@H](CC(=O)[*:2])N[*:1]; NH(CH2)14COOH = O=C(O)CCCCCCCCCCCCCCN*; Phe(3-Me) = Cc1cccc(C[C@H](N)C(=O)O)c1; βAsp = O=C(O)[C@H](CC(=O)[*:2])N[*:1]; NH(CH2)12COOH = O=C(O)CCCCCCCCCCCCN*; Val(3-OH) = CC(C)(O)[C@H](N)C(=O)O; Cha = N[C@@H](CC1CCCCC1)C(=O)O; Ile(3ξ) = CCC(C)[C@H](N)C(=O)O; Thr(3ξ) = CC(O)[C@H](N)C(=O)O; Carboxymethyl = O=C(O)C*; Orn = NCCC[C@H](N)C(=O)O; Dab = NCC[C@H](N)C(=O)O; AEEA = NCCOCCOCC(=O)O; ξC = NC(CS)C(=O)O
# Target: T1, PD-1/PD-L1 interaction (PE-labeled human PD-L1-Ig binding to Jurkat cell line over-expressing human PD-1) (Homo sapiens, UniProt Q15116)
# T1 construct: expressed in transfected cells; host or cells: Jurkat
# Experiment: Jurkat-PD-1 Cell Binding High-Content Screening Assay (CBA)
# Format: cell-based
# Settings: Jurkat cell line over-expressing human PD-1; PE-labeled PD-L1-Ig 20 nM final; read-out: Jurkat hPD1-PDL1 IC50
# In short: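 Jurkat cells stably over-expressing human PD-1 were seeded in DMEM with 10% fetal calf serum and pre-incubated with compound for 2 h at 37° C. PE-labeled human PD-L1-Ig was then added at 20 nM final for 1 hour, after which cells were fixed with paraformaldehyde, Hoechst-stained and imaged by high-content microscopy.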
# T1 sequence (Q15116 25-288): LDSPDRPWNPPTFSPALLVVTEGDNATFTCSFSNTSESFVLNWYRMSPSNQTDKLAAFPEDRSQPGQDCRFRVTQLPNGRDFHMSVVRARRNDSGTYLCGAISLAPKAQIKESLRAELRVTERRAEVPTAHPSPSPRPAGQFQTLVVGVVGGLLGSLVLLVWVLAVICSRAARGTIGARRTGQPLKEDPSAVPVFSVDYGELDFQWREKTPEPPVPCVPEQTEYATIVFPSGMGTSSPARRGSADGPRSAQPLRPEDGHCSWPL
row,SMILES,pIC50
1,CC(C)C[C@@H]1NC(=O)CSC[C@@H](C(=O)N[C@@H](CCN)C(=O)NCCCCCCCCCCCCCCC(=O)O)NC(=O)[C@H](CCC(=O)O)NC(=O)[C@H](C(C)(C)O)NC(=O)[C@H](CC2CCCCC2)NC(=O)[C@H](CCN)NC(=O)[C@@H](CC(C)C)NC(=O)[C@H](CCCN)NC(=O)[C@H](Cc2ccc(OCC(=O)O)cc2)NC(=O)[C@H](Cc2ccc(-c3ccccc3)cc2)NC(=O)[C@H](Cc2ccc(OCC(=O)O)cc2)NC(=O)[C@H](Cc2cccc(C(F)(F)F)c2)NC(=O)[C@H](CC(=O)O)NC(=O)[C@H](Cc2ccc(OCC(=O)O)cc2)NC1=O [Compound 3874] ({CH2CO}-LY(Carboxymethyl)D[Phe(3-CF3)]Y(Carboxymethyl)[Bip]Y(Carboxymethyl)[Orn][dL][Dab][Cha][Val(3-OH)]EC[Dab]-{NH(CH2)14COOH}; thioether N-14),6.09
2,CC(=O)NCCCC[C@@H]1NC(=O)[C@H](C(C)(C)O)NC(=O)[C@H](CC2CCCCC2)NC(=O)[C@H](CCN)NC(=O)[C@@H](CC(C)C)NC(=O)[C@H](CCCN)NC(=O)[C@H](CCC(N)=O)NC(=O)[C@H](Cc2ccc(-c3ccccc3)cc2)NC(=O)[C@H](Cc2ccc(OCC(=O)O)cc2)NC(=O)[C@H](Cc2cccc(C(F)(F)F)c2)NC(=O)[C@H](CC(=O)O)NC(=O)[C@H](Cc2ccc(OCC(=O)O)cc2)NC(=O)[C@H](Cc2ccc(OCC(=O)O)cc2)NC(=O)CSC[C@@H](C(=O)N[C@@H](CCN)C(=O)NCCCCCCCCCCCCCCC(=O)O)NC1=O [Compound 3875] ({CH2CO}-Y(Carboxymethyl)Y(Carboxymethyl)D[Phe(3-CF3)]Y(Carboxymethyl)[Bip]Q[Orn][dL][Dab][Cha][Val(3-OH)]K(Ac)C[Dab]-{NH(CH2)14COOH}; thioether N-14),6.83
3,Cc1cccc(C[C@@H]2NC(=O)[C@H](CC(=O)O)NC(=O)[C@H](Cc3ccc(OCC(=O)O)cc3)NC(=O)[C@H](CC(C)C)NC(=O)CSC[C@@H](C(=O)N[C@@H](CCN)C(=O)NCCOCCOCC(=O)N[C@H](CC(=O)NCCOCCOCC(=O)NCCCCCCCCCCCCC(=O)O)C(=O)O)NC(=O)[C@H](CCC(=O)O)NC(=O)[C@H](C(C)(C)O)NC(=O)[C@H](CC3CCCCC3)NC(=O)[C@H](CCN)NC(=O)[C@@H](CC(C)C)NC(=O)[C@H](CCCN)NC(=O)[C@H](Cc3ccc(OCC(=O)O)cc3)NC(=O)[C@H](Cc3ccc(-c4ccccc4)cc3)NC(=O)[C@H](Cc3ccc(OCC(=O)O)cc3)NC2=O)c1 [Compound 3877] ({CH2CO}-LY(Carboxymethyl)D[Phe(3-Me)]Y(Carboxymethyl)[Bip]Y(Carboxymethyl)[Orn][dL][Dab][Cha][Val(3-OH)]EC[Dab][AEEA][d(βAsp)][AEEA]-{NH(CH2)12COOH}; thioether N-14),7.58
4,CC(=O)NCCCC[C@@H]1NC(=O)[C@H](C(C)(C)O)NC(=O)[C@H](CC2CCCCC2)NC(=O)[C@H](CCN)NC(=O)[C@@H](CC(C)C)NC(=O)[C@H](CCCN)NC(=O)[C@H](CCC(N)=O)NC(=O)[C@H](Cc2ccc(-c3ccccc3)cc2)NC(=O)[C@H](Cc2ccc(C(=O)O)cc2)NC(=O)[C@H](Cc2cccc(C(F)(F)F)c2)NC(=O)[C@H](CC(=O)O)NC(=O)[C@H](Cc2ccc(OCC(=O)O)cc2)NC(=O)[C@H](Cc2ccc(OCC(=O)O)cc2)NC(=O)CSC[C@@H](C(=O)N[C@@H](CCN)C(=O)NCCCCCCCCCCCCC(=O)O)NC1=O [Compound 3881] ({CH2CO}-Y(Carboxymethyl)Y(Carboxymethyl)D[Phe(3-CF3)][Phe(4-COOH)][Bip]Q[Orn][dL][Dab][Cha][Val(3-OH)]K(Ac)C[Dab]-{NH(CH2)12COOH}; thioether N-14),7.61
5,Cc1cccc(C[C@@H]2NC(=O)[C@H](CC(=O)O)NC(=O)[C@H](Cc3ccc(OCC(=O)O)cc3)NC(=O)[C@H](C(C)O)NC(=O)CSCC(C(=O)N[C@@H](CCN)C(=O)NCCCCCCCCCCCCC(=O)O)NC(=O)[C@H](CO)NC(=O)[C@H](C(C)(C)O)NC(=O)[C@H](CC3CCCCC3)NC(=O)[C@H](CCN)NC(=O)[C@@H](CC(C)C)NC(=O)[C@H](CCCN)NC(=O)[C@H](CCCNC(=N)N)NC(=O)[C@H](Cc3ccc(-c4ccccc4)cc3)NC(=O)[C@H](Cc3ccc(O)cc3)NC2=O)c1 (stereo partly drawn) [Compound 3882] ({CH2CO}-[Thr(3ξ)]Y(Carboxymethyl)D[Phe(3-Me)]Y[Bip]R[Orn][dL][Dab][Cha][Val(3-OH)]S[ξC][Dab]-{NH(CH2)12COOH}; thioether N-14),7.57
6,Cc1cccc(C[C@@H]2NC(=O)[C@H](CC(=O)O)NC(=O)[C@H](Cc3ccc(C(=O)O)cc3)NC(=O)[C@H](C)NC(=O)CSC[C@@H](C(=O)N[C@@H](CCN)C(=O)NCCOCCOCC(=O)N[C@@H](CCC(=O)O)C(=O)N[C@@H](CC(=O)NCCOCCOCC(=O)NCCCCCCCCCCCCCCC(=O)O)C(=O)O)NC(=O)[C@H](Cc3cnc[nH]3)NC(=O)[C@H](C(C)(C)O)NC(=O)[C@H](CC3CCCCC3)NC(=O)[C@H](CCN)NC(=O)[C@@H](CC(C)C)NC(=O)[C@H](CCCN)NC(=O)[C@H](Cc3ccc(C(=O)O)cc3)NC(=O)[C@H](Cc3ccc(-c4ccccc4)cc3)NC(=O)[C@H](Cc3ccc(C(=O)O)cc3)NC2=O)c1 [Compound 3884] ({CH2CO}-A[Phe(4-COOH)]D[Phe(3-Me)][Phe(4-COOH)][Bip][Phe(4-COOH)][Orn][dL][Dab][Cha][Val(3-OH)]HC[Dab][AEEA]E[βAsp][AEEA]-{NH(CH2)14COOH}; thioether N-14),6.83
7,CCC(C)[C@@H]1NC(=O)[C@H](Cc2ccc(-c3ccccc3)cc2)NC(=O)[C@H](C(C)C)NC(=O)[C@H](Cc2c[nH]c3ccccc23)NC(=O)[C@H](CC(=O)O)NC(=O)[C@H](Cc2ccc(OCC(=O)O)cc2)NC(=O)[C@H](Cc2ccc(OCC(=O)O)cc2)NC(=O)CSC[C@@H](C(=O)N[C@H](C)C(=O)NCCOCCOCC(=O)NCCCCCCCCCCCCCCC(=O)O)NC(=O)[C@H](CCCNC(=N)N)NC(=O)[C@H](C(C)(C)O)NC(=O)[C@H](CC2CCCCC2)NC(=O)[C@H](CCN)NC(=O)[C@@H](CC(C)C)NC(=O)[C@H](CCCN)NC1=O (stereo partly drawn) [Compound 3886] ({CH2CO}-Y(Carboxymethyl)Y(Carboxymethyl)DWV[Bip][Ile(3ξ)][Orn][dL][Dab][Cha][Val(3-OH)]RC[dA][AEEA]-{NH(CH2)14COOH}; thioether N-14),6.70
8,Cc1cccc(C[C@@H]2NC(=O)[C@H](CC(=O)O)NC(=O)[C@H](Cc3ccc(C(=O)O)cc3)NC(=O)[C@H](CCCN)NC(=O)CSC[C@@H](C(=O)N[C@@H](CCN)C(=O)NCCOCCOCC(=O)NCCOCCOCC(=O)N[C@@H](CCC(=O)O)C(=O)N[C@@H](CC(=O)NCCCCCCCCCCCCCCC(=O)O)C(=O)O)NC(=O)[C@H](Cc3cnc[nH]3)NC(=O)[C@H](C(C)(C)O)NC(=O)[C@H](CC3CCCCC3)NC(=O)[C@H](CCN)NC(=O)[C@@H](CC(C)C)NC(=O)[C@H](CCCN)NC(=O)[C@H](Cc3ccc(C(=O)O)cc3)NC(=O)[C@H](Cc3ccc(-c4ccccc4)cc3)NC(=O)[C@H](Cc3ccc(C(=O)O)cc3)NC2=O)c1 [Compound 3887] ({CH2CO}-[Orn][Phe(4-COOH)]D[Phe(3-Me)][Phe(4-COOH)][Bip][Phe(4-COOH)][Orn][dL][Dab][Cha][Val(3-OH)]HC[Dab][AEEA][AEEA]ED(NH(CH2)14COOH)-OH; thioether N-14),7.25
9,CC(=O)NCCCC[C@@H]1NC(=O)[C@H](C(C)(C)O)NC(=O)[C@H](CC2CCCCC2)NC(=O)[C@H](CCN)NC(=O)[C@@H](CC(C)C)NC(=O)[C@H](CCCN)NC(=O)[C@H](Cc2ccc(C(=O)O)cc2)NC(=O)[C@H](Cc2ccc(-c3ccccc3)cc2)NC(=O)[C@H](Cc2ccc(C(=O)O)cc2)NC(=O)[C@H](Cc2cccc(C(F)(F)F)c2)NC(=O)[C@H](CC(=O)O)NC(=O)[C@H](Cc2ccc(OCC(=O)O)cc2)NC(=O)[C@H](Cc2cnc[nH]2)NC(=O)CSC[C@@H](C(=O)N[C@@H](CCN)C(=O)NCCOCCOCC(=O)N[C@@H](CC(=O)N[C@@H](CC(=O)O)C(=O)NCCCCCCCCCCCCCCC(=O)O)C(=O)O)NC1=O [Compound 3888] ({CH2CO}-HY(Carboxymethyl)D[Phe(3-CF3)][Phe(4-COOH)][Bip][Phe(4-COOH)][Orn][dL][Dab][Cha][Val(3-OH)]K(Ac)C[Dab][AEEA][βAsp]D-{NH(CH2)14COOH}; thioether N-14),6.93
10,CC(C)C[C@H]1NC(=O)[C@H](CCCN)NC(=O)[C@H](Cc2ccc(C(=O)O)cc2)NC(=O)[C@H](Cc2ccc(-c3ccccc3)cc2)NC(=O)[C@H](Cc2ccc(C(=O)O)cc2)NC(=O)[C@H](Cc2cccc(C(F)(F)F)c2)NC(=O)[C@H](CC(=O)O)NC(=O)[C@H](Cc2ccc(OCC(=O)O)cc2)NC(=O)[C@H](Cc2cnc[nH]2)NC(=O)CSC[C@@H](C(=O)N[C@@H](CCN)C(=O)NCCOCCOCC(=O)N[C@@H](CC(=O)N[C@@H](CC(=O)O)C(=O)NCCCCCCCCCCCCCCC(=O)O)C(=O)O)NC(=O)[C@H](CCC(=O)O)NC(=O)[C@H](C(C)(C)O)NC(=O)[C@H](CC2CCCCC2)NC(=O)[C@H](CCN)NC1=O [Compound 3889] ({CH2CO}-HY(Carboxymethyl)D[Phe(3-CF3)][Phe(4-COOH)][Bip][Phe(4-COOH)][Orn][dL][Dab][Cha][Val(3-OH)]EC[Dab][AEEA][βAsp]D-{NH(CH2)14COOH}; thioether N-14),6.57
11,CC(C)C[C@H]1NC(=O)[C@H](CCCN)NC(=O)[C@H](Cc2ccc(C(=O)O)cc2)NC(=O)[C@H](Cc2ccc(-c3ccccc3)cc2)NC(=O)[C@H](Cc2ccc(C(=O)O)cc2)NC(=O)[C@H](Cc2cccc(C(F)(F)F)c2)NC(=O)[C@H](CC(=O)O)NC(=O)[C@H](Cc2ccc(OCC(=O)O)cc2)NC(=O)[C@H](C(C)C)NC(=O)CSC[C@@H](C(=O)N[C@@H](CCN)C(=O)NCCOCCOCC(=O)N[C@@H](CCC(=O)O)C(=O)N[C@@H](CCC(=O)NCCCCCCCCCCCCCCC(=O)O)C(=O)O)NC(=O)[C@H](CC(=O)O)NC(=O)[C@H](C(C)(C)O)NC(=O)[C@H](CC2CCCCC2)NC(=O)[C@H](CCN)NC1=O [Compound 3890] ({CH2CO}-VY(Carboxymethyl)D[Phe(3-CF3)][Phe(4-COOH)][Bip][Phe(4-COOH)][Orn][dL][Dab][Cha][Val(3-OH)]DC[Dab][AEEA]EE(NH(CH2)14COOH)-OH; thioether N-14),6.36
